Reference: ChEMBL document CHEMBL1914379, “Challenges of drug discovery in novel target space. The discovery and evaluation of PF-3893787: a novel histamine H4 receptor antagonist” (Bioorg Med Chem Lett, 2011)
The source made the active and inactive calls. The rule behind the calls is not given here.

Experiments:
[1] = Oral bioavailability in rat at 1 mg/kg; assay type: ADME, organism-based; conditions: in vivo
[2] = Volume of distribution in rat at 1 mg/kg, iv and 1 mg/kg, po; assay type: ADME, organism-based; conditions: in vivo
Rattus norvegicus [3] = test: Induction of pro-inflammatory response in rat dosed orally for 4 days; assay type: functional, organism-based
[4] = Clearance in rat at 1 mg/kg, iv and 1 mg/kg, po; assay type: ADME, organism-based; conditions: in vivo
[5] = Half life in rat at 1 mg/kg, iv and 1 mg/kg, po; assay type: ADME, organism-based; conditions: in vivo
Rattus norvegicus [6] = test: Toxicity in po dosed rat assessed as lymphoid depletion from thymus for 4 days; assay type: organism-based; conditions: in vivo, 96 h
Rattus norvegicus [7] = test: Toxicity in po dosed rat assessed as lymphoid depletion from spleen for 4 days; assay type: organism-based; conditions: in vivo, 96 h
Histamine H4 receptor [8] = molecular target: T1, Histamine H4 receptor (Homo sapiens, UniProt Q9H3N8); test: Displacement of [3H]-histamine from full length human H4R expressed in HEK293 cells; assay type: cell-based
[9] = Metabolic stability in rat liver microsomes; assay type: ADME, Microsome; conditions: read-out: Stability
Rattus norvegicus [10] = test: Toxicity in po dosed rat assessed as lymphoid depletion from gut for 4 days; assay type: organism-based; conditions: in vivo, 96 h
Rattus norvegicus [11] = test: Toxicity in po dosed rat assessed as decrease in reticulocyte counts for 4 days; assay type: organism-based; conditions: in vivo, 96 h
Rattus norvegicus [12] = test: Toxicity in po dosed rat assessed as decrease in erythropoiesis for 4 days; assay type: organism-based, Erythrocyte; conditions: in vivo, 96 h
Histamine H4 receptor [13] = molecular target: T1, Histamine H4 receptor; test: Antagonist activity at full length human H4R expressed in HEK293 cells assessed as reversal of forskolin-induced cAMP production by CRE-beta-lactamase reporter gene assay; assay type: functional, cell-based
[14] = Metabolic stability in human liver microsomes; assay type: ADME, Microsome; conditions: read-out: Stability
[15] = molecular target: T2, Histamine H4 receptor (Cavia porcellus) (UniProt Q91ZY3); test: Agonist activity at guinea pig H4R expressed in HEK293T cells assessed as reversal of forskolin-induced cAMP production by CRE-beta-lactamase reporter gene assay; assay type: functional, cell-based; conditions: HEK-293T
T2 sequence (whole entry): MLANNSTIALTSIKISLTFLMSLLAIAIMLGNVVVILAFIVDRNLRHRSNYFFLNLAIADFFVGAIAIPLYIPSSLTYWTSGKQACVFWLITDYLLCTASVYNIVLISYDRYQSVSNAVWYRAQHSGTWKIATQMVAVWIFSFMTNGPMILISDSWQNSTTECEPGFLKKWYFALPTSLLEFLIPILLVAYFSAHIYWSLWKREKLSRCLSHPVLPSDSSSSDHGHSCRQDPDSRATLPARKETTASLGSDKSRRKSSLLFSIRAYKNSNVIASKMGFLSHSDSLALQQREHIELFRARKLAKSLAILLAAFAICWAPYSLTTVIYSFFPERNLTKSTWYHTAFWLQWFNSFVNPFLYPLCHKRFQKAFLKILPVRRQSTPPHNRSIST

HEK-293T [16] = test: Agonist activity at macaque H4R expressed in HEK293T cells assessed as reversal of forskolin-induced cAMP production by CRE-beta-lactamase reporter gene assay; assay type: functional, cell-based; conditions: Macaca mulatta
[17] = Displacement of [3H]-histamine from macaque H4R expressed in HEK293T cells; assay type: cell-based, Macaca mulatta; conditions: hek-293t
[18] = Displacement of [3H]-histamine from dog H4R expressed in HEK293T cells; assay type: cell-based, Canis lupus familiaris; conditions: hek-293t
HEK-293T [19] = test: Agonist activity at dog H4R expressed in HEK293T cells assessed as reversal of forskolin-induced cAMP production by CRE-beta-lactamase reporter gene assay; assay type: functional, cell-based; conditions: Canis lupus familiaris
[20] = Lipophilicity, log D of the compound; assay type: physicochemical; conditions: octanol/water
[21] = Blood clearance in dog at 3 mg/kg, iv; assay type: ADME, organism-based, Canis lupus familiaris; design: dose 3 mg/kg, route intravenous
[22] = Half life in dog at 3 mg/kg, iv; assay type: ADME, organism-based, Canis lupus familiaris; design: dose 3 mg/kg, route intravenous; conditions: in vivo
[23] = Volume of distribution in rat blood at 1 mg/kg, iv and 1 mg/kg, po; assay type: ADME, organism-based
Rattus norvegicus [24] = test: Toxicity in rat assessed as vacuolation at high dose, po for 7 days; assay type: organism-based; conditions: in vivo, 168 h
[25] = Volume of distribution in dog blood at 3 mg/kg, iv; assay type: ADME, organism-based, Canis lupus familiaris; design: dose 3 mg/kg, route intravenous
Canis familiaris = test: Toxicity in dog assessed as adverse events dosed orally for 7 days; assay type: organism-based, Canis lupus familiaris; conditions: in vivo, po, 168 h
[26] = Blood clearance in rat at 1 mg/kg, iv and 1 mg/kg, po; assay type: ADME, organism-based
Liver microsomes = test: Metabolic stability in human liver microsomes assessed as reactive metabolite generation; assay type: ADME, Microsome
Histamine H4 receptor [27] = molecular target: T1, Histamine H4 receptor; test: Antagonist activity at full length human H4R expressed in HEK293 cells assessed as inhibition of forskolin-induced cAMP responsive element-beta-lactamase activity at 15 uM; assay type: functional, cell-based

T1 sequence (Q9H3N8 whole entry): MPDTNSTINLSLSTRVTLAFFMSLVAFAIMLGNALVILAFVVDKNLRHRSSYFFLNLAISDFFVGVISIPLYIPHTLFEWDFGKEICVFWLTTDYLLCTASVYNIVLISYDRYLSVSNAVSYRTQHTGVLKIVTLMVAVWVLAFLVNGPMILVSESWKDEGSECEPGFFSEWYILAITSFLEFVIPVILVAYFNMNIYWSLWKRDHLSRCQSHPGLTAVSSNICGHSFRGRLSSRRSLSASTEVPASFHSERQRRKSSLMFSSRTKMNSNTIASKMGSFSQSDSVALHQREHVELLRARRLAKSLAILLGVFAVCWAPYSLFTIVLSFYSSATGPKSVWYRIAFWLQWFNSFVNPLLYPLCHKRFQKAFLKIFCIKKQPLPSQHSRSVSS

Compound	bioavailability [1] [%]	half-life [5] [h]	Activity (Rattus norvegicus [6])	Activity (Rattus norvegicus [7])	Ki (Histamine H4 receptor [8]) [nM]	microsomal CLint [9] [µL/min/mg]	Activity (Rattus norvegicus [10])	Activity (Rattus norvegicus [11])	Activity (Rattus norvegicus [12])	Ki (Histamine H4 receptor [13]) [nM]	microsomal CLint [14] [µL/min/mg]	logD [20]	other results
CN1C[C@@H]2CN(C(=O)c3nc4cc(F)c(F)cc4[nH]3)C[C@@H]2C1	50	0.8	Dose-dependent effect	Dose-dependent effect	128	10	Dose-dependent effect	Toxic	Toxic	53	< 7	–	Vd [2]: 4.1 L/kg; Activity (Rattus norvegicus [3]): Active; clearance [4]: 59 mL/min/kg
CN1CCN(C(=O)c2cc3cc(Cl)ccc3[nH]2)CC1 [JNJ-7777120]	–	–	–	–	–	61	–	–	–	–	28	2.6	Activity [15]: Active; Activity (HEK-293T [16]): Active; pKi [17]: 7.17; pKi [18]: 6.89; Activity (HEK-293T [19]): Active
CNC1CN(c2cc(NCC(C)(C)C)nc(N)n2)C1	57	6.9	Non-toxic	Non-toxic	1.7	< 8.5	Non-toxic	Non-toxic	Non-toxic	0.034	< 7	0.7	clearance [21]: 30 mL/min/kg; half-life [22]: 19 h; Vd [23]: 49 L/kg; Activity (Rattus norvegicus [24]): Toxic; Vd [25]: 48 L/kg; Activity (Canis familiaris): Non-toxic; clearance [26]: 77 mL/min/kg
CN1C[C@@H]2CN(C(=O)c3nc4cc(F)ccc4[nH]3)C[C@@H]2C1	–	–	–	–	83	40	–	–	–	39	< 7	–	Stability (Liver microsomes): Stable
CC(C)(C)CCNc1cc(NC2CCN(Cc3ccc(CO)o3)C2)ncn1 (racemic)	–	–	–	–	–	–	–	–	–	–	–	–	inhibition (Histamine H4 receptor [27]): 73%
CN1CCN(c2cc(NCCC(C)(C)C)ncn2)CC1	–	–	–	–	–	–	–	–	–	92	–	–	–
